Common to all, as to assay type: functional
One assay deals with Penicillium frequentans. Briefly: Antifungal activity against Penicillium frequentans ATCC 10110 assessed as reduction in fungal growth incubated ofr 48 hrs by CLSI micro-dilution method. A general note: Dilution methods test growth across graded concentrations, often in twofold steps.
A further assay deals with Penicillium chrysogenum. Briefly: Antifungal activity against Penicillium chrysogenum ATCC 20044 assessed as reduction in fungal growth incubated ofr 48 hrs by CLSI micro-dilution method.
A further assay deals with Alternaria alternata. Briefly: Antifungal activity against Alternaria alternata ATCC 8741 assessed as reduction in fungal growth incubated ofr 48 hrs by CLSI micro-dilution method.
The test system of the next assay is Fusarium solani. Briefly: Antifungal activity against Fusarium solani ATCC 20327 assessed as reduction in fungal growth incubated ofr 48 hrs by CLSI micro-dilution method.
The subject of assay [1] is Aspergillus flavus. Briefly: Antifungal activity against Aspergillus flavus ATCC 20046 assessed as reduction in fungal growth incubated ofr 48 hrs by CLSI micro-dilution method.
The test system of a further assay is Microsporum audouinii. Briefly: Antifungal activity against Microsporum audouinii.
Assay [2] concerns Candida albicans. Briefly: Antifungal activity against Candida albicans.
For another assay, the system named is Aspergillus niger. Briefly: Antifungal activity against Aspergillus niger MTCC 282 assessed as reduction in microbial growth after 24 hrs by broth micro-dilution method.
For assay [3], the system named is Candida albicans. Briefly: Antifungal activity against Candida albicans assessed as diameter of inhibition zone.
A further assay has as its system Rhizopus microsporus. Briefly: Antifungal activity against Rhizopus microsporus assessed as diameter of inhibition zone.
Assay [4] concerns Candida albicans. Briefly: Antifungal activity against azole-resistant Candida albicans ATCC 18804 assessed as reduction in fungal growth by XTT assay.
The test system of a further assay is Geotrichum candidum. Briefly: Antifungal activity against Geotrichum candidum.
In assay [5] the test system is Syncephalastrum racemosum. Briefly: Antifungal activity against Syncephalastrum racemosum.
Assay [6] has as its system Candida albicans. Briefly: Antifungal activity against Candida albicans SC5314 assessed as reduction in fungal growth incubated for 72 hrs by broth microdilution method.
In assay [7] the test system is Aspergillus fumigatus. Briefly: Antifungal activity against Aspergillus fumigatus RCMB 002568 assessed as diameter of zone inhibition.
The subject of assay [8] is Candida albicans. Briefly: Antifungal activity against Candida albicans RCMB 005036 assessed as diameter of zone inhibition.
In assay [9] the test system is Aspergillus fumigatus. Briefly: Antifungal activity against Aspergillus fumigatus assessed as reduction in fungal growth incubated for 72 hrs by agar well diffusion method. Background: In agar diffusion tests the substance spreads into inoculated agar from a disc or well.
The subject of assay [10] is Candida albicans. Briefly: Antifungal activity against Candida albicans ATCC 90028 assessed as growth inhibition incubated for 36 hrs by resazurin dye based assay. Background: Alamar Blue is a resazurin reagent that responds to reducing activity.
Assay [11] deals with Candida albicans. Briefly: Antifungal activity against azole-resistant Candida albicans ATCC 10231 assessed as fungal growth inhibition incubated for 24 hrs by CLSI protocol based broth microdilution method.
Another assay deals with Nakaseomyces glabratus. Briefly: Antifungal activity against Candida glabrata ATCC 90030 assessed as reduction in microbial growth.
The next assay deals with Candida tropicalis. Briefly: Antifungal activity against Candida tropicalis ATCC 750 assessed as reduction in microbial growth.
For assay [12], the system named is Candida albicans. Briefly: Antifungal activity against Candida albicans ATCC 90028 assessed as reduction in microbial growth.
Assay [13] has as its system Candida albicans. Briefly: Antifungal activity against Candida albicans assessed as zone of inhibition by disc diffusion method.
Assay [14] relates to Aspergillus flavus. Briefly: Antifungal activity against Aspergillus flavus assessed as zone of inhibition by disc diffusion method.
In assay [15] the test system is Candida albicans. Briefly: Antifungal activity against Candida albicans assessed as reduction in fungal growth incubated for 72 hrs by agar well diffusion method.

Molecules are shown by their SMILES. Values after ≈ are worked out from the molar mass of the structure shown.

Turning to `CCC(C)CC(C)CCCCCCCCC(=O)N[C@H]1C[C@@H](O)[C@@H](NCCN)NC(=O)[C@@H]2[C@@H](O)CCN2C(=O)[C@H]([C@H](O)CCN)NC(=O)[C@H]([C@H](O)[C@@H](O)c2ccc(O)cc2)NC(=O)[C@@H]2C[C@@H](O)CN2C(=O)[C@H]([C@@H](C)O)NC1=O` (stereo partly drawn), the minimal inhibitory concentration (MIC) with Penicillium frequentans, with Penicillium chrysogenum, with Alternaria alternata, in the assay on Fusarium solani and in the assay with Aspergillus flavus [1] was 0.25 µg/mL (≈ 0.229 µM) in each case.
On to `COc1ccc(C2CC(=Nn3c(=O)cc[nH]c3=O)CC(c3ccc(OC)cc3)S2)cc1` (stereo not drawn), for which the figures for the MIC in the assay on Microsporum audouinii and against Candida albicans [2] were 4 µg/mL (≈ 9.14 µM) and 0.25 µg/mL (≈ 0.571 µM), respectively.
For `Clc1cnc(C2=Nc3ccccc3SC(c3cccs3)C2)cn1` (stereo not drawn), the MIC in the assay with Aspergillus niger was determined as 44 µM.
Regarding `O=C1CCC(=O)N(CC(=O)n2c3ccccc3c3ccccc32)N1`, the entries for the “inhibition zone (IZ)” value in the assay with Candida albicans [3] and in the assay with Rhizopus microsporus were 18 mm and 14 mm, respectively.
Regarding `COc1ccc(/N=N/c2sc(-n3[nH]c(=O)ccc3=O)nc2C)cc1`, the minimal inhibitory concentration (MIC) in the assay with Candida albicans [4] turned out to be 0.2 µg/mL (≈ 0.582 µM).
On to `Cc1nn(-c2ccccc2)c2nc3sc(C(=O)OCC(=O)c4ccccc4)c(N)c3nc12`, for which the minimal inhibitory concentration (MIC) was 4 µg/mL (≈ 9.02 µM) against Geotrichum candidum, 5 µg/mL (≈ 11.3 µM) in the assay with Candida albicans [2] and 5 µg/mL (≈ 11.3 µM) in assay [5].
Turning to `Clc1ccc(C2CC(c3cnc(Cl)cn3)=Nc3ccccc3S2)c(Cl)c1` (stereo not drawn), in the assay with Aspergillus niger, the MIC was found to be 19 µM.
With `O=C(NNc1nc2ccccc2nc1/C=C/c1ccccc1O)Nc1cccc(Cl)c1`, the MIC with Candida albicans [6] was determined as 0.125 µM (≈ 0.054 µg/mL).
For `COc1ccc(NC(=O)c2nn(-c3ccccc3)c(=N)c(C#N)c2C)cc1`, the results for the “inhibition zone (IZ)” value with Aspergillus fumigatus [7] and with Candida albicans [8] were 20 mm and 26 mm, respectively.
For `Cc1n[nH]c2c(C#N)c(=O)n(-c3ccc(N)cc3)nc12`, in the assay on Aspergillus fumigatus [9], the minimal inhibitory concentration (MIC) came out at 1.95 µg/mL (≈ 7.32 µM).
Take `Cc1ccc(-c2ccc(=O)n(CC3=C(Cn4nc(-c5ccc(C)cc5)ccc4=O)[C@]4(C)CCCC(C)(C)C4=CC3=O)n2)cc1`: the MIC in the assay with Penicillium frequentans, in the assay with Penicillium chrysogenum, in the assay on Alternaria alternata, with Fusarium solani and in the assay with Aspergillus flavus [1] was 5 µg/mL (≈ 8.52 µM) throughout.
`O=C(Nc1ccc(F)c(F)c1)N1CCn2c(nnc2C(F)(F)F)C1`: the minimal inhibitory concentration (MIC) in the assay on Candida albicans [10] stood at 6.25 µg/mL (≈ 18 µM).
Regarding `O=c1ccc(=O)n(-c2nc(-c3cc4ccccc4oc3=O)cs2)[nH]1`, the MIC in the assay with Candida albicans [11] came to 5.6 µg/mL (≈ 16.5 µM).
In the case of `C[C@]12CC[C@H](O)CC1=CC[C@@H]1[C@@H]2CC[C@]2(C)C3=C(C[C@@H]12)C(c1ccccc1)N1C=CSC1=N3` (stereo partly drawn), the MIC in the assay with Nakaseomyces glabratus was > 1000 µg/mL; with Candida tropicalis, > 1000 µg/mL; in the assay on Candida albicans [12], 750 µg/mL.
Turning to `CC(=O)N/C(=C\c1ccc(Cl)cc1)c1nc2c(=O)[nH]c(=O)n(Cc3ccccc3Cl)c2[nH]1`, the “inhibition zone (IZ)” value came out at 12 mm in the assay with Candida albicans [13] and 10 mm with Aspergillus flavus [14].
With `Cc1nnc2c(C#N)c(N)n(-c3ccc(N)cc3)nc1-2`, the minimal inhibitory concentration (MIC) in the assay with Aspergillus fumigatus [9] worked out at 0.9 µg/mL (≈ 3.39 µM); in the assay on Candida albicans [15], 3.9 µg/mL (≈ 14.7 µM).

The term MIC denotes the least concentration at which growth counts as inhibited.

(Values after ChEMBL document CHEMBL6103565, “Current strategies in design and synthesis of antifungals hybrid and chimeric diazine derivatives” (Bioorg Med Chem, 2025).)
